Structures can show the parent of a compound that is named as a salt. Where two headings read alike, the source gives them in different places.
Assays:
[1] = test system: Hepatoma cell Hep3B (high expression of FGFR4 and FGF19); assay: Hepatoma cell proliferation inhibition experiment (MTS method); type: cell-based; settings: for IC50: Homo sapiens, Hep3B, read-out: Hep3B(IC50 μM)
Description: In this experiment, the MTS method was used to test the inhibitory effect of the compounds on the proliferation of Hepatoma cell Hep3B (high expression of FGFR4 and FGF19), and the half inhibitory concentration IC50 of the compounds to Hep3B was obtained. The Hep3B cell line was purchased from ATCC, and the complete culture medium of the Hep3B cell line was MEM+10% FBS+1% PS. MEM cell culture medium, fetal bovine serum, and trypsin were purchased from Gibco, cell culture flasks were purchased from Greiner, and disposable Cell Counting Plate and Taittinger Blue Solution were purchased from Bio-Rad.
(1) 100 μl Hepatoma cell Hep3B suspension was seeded in a 96-well cell culture plate, and the density of each well was 2.0×10^4 cells/ml.
(3) A mixture of MTS (3-(4,5-dimethylthiazol-2-yl)-5-(3-carboxymethoxyphenyl)-2-(4-sulfophenyl)-2H-tetrazolium)/PMS (phenazine methosulfate) was added into each well for coloration, and MTS/PMS in the mixture was at a ratio of 20:1 (ml:ml). 30 μl of the mixture was added into each well of the culture plate above mentioned in step (2), then the culture plate was incubated for 3 h in the incubator.
(5) The inhibition rate was calculated by the […];
(6) According to the inhibition rate of the different concentrations, the IC50 values of the compounds were obtained by curve fitting.

[2] = PK analysis of rats; type: in vivo; settings: p.o. (10 mg/kg); for AUC(0-t) / Cmax: rat, plasma, po; for AUC(0-t): read-out: Curve area AUC0-24 h; for Cmax: read-out: Drug concentration in blood Cmax
Experimental: In the present invention, the pharmacokinetics experiment of the compounds in rats was performed using the SD rats (Vitolihua).
(1) Mode of administration: single gavage administration and intravenous injection administration.
(2) Dosage: 10 mg/kg in the gavage administration, 3 mg/kg in the intravenous injection administration.
Gavage administration: before administration, 15 min, 30 min, 1 h, 2 h, 4 h, 6 h, 8 h, 24 h; […]
(4) Sample processing: 200 μL of orbital blood was collected at each sampling time point. After anticoagulation with heparin, the blood was centrifuged at 5500 rpm for 10 min, and 60 μL of the supernatant was taken and put into the refrigerator at −80° C. for waiting for testing.
Samples obtained after administration of Compound 1 were tested using 4000 LC-MS/MS analyzer, wherein, the chromatographic separation conditions for testing were:
Samples obtained after administration of Compound 7 were tested using 4000 LC-MS/MS analyzer, wherein, the chromatographic separation conditions for testing were:
Samples obtained after administration of Compound 16 were tested using 4000 LC-MS/MS analyzer, wherein, the chromatographic separation conditions for testing were: […]

[3] = molecular target: T1, FGFR4 kinase (Homo sapiens (Human), UniProt P22455); assay: biochemical
T1 sequence (P22455 22-802): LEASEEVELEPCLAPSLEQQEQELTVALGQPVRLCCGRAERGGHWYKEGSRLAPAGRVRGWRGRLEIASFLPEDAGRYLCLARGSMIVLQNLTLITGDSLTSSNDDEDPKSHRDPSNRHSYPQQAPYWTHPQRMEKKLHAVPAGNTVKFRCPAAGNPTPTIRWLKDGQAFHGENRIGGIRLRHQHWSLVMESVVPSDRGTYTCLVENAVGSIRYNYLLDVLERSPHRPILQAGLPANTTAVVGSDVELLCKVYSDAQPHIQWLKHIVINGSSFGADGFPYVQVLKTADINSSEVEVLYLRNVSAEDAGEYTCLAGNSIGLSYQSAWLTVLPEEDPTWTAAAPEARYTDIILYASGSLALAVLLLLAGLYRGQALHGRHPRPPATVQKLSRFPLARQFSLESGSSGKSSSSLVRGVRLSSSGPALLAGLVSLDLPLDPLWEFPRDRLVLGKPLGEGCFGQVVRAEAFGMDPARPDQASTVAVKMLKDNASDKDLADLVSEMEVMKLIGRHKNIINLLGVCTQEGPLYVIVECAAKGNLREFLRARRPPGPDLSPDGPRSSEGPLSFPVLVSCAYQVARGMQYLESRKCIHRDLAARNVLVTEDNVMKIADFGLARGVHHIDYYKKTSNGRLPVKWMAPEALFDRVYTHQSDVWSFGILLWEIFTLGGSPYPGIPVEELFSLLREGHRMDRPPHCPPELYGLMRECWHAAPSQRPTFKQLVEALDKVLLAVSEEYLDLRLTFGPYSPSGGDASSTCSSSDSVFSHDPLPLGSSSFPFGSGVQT

[4] = molecular target: T1, FGFR4 kinase

SMILES: CSCCNc1cc(NC(=O)N2CCCc3cc(CN4CCN(C)CC4=O)c(C=O)nc32)ncc1C#N [Compound 1]
- IC50 ([1]; 120 h incubation): 0.023 µM
- exposure amount AUC0-24 h and maximum drug concentration in blood Cmax compared with the reference compound ([2]; SD rats): significantly higher than the reference compound
- AUC(0-t) ([2]; Sprague-Dawley (SD)): 2.37 µg·h/mL
- Cmax ([2]; Sprague-Dawley (SD)): 0.833 µg/mL
- IC50 [3]: 0.0015 µM

SMILES: CSCCOc1cc(NC(=O)N2CCCc3cc(CN4CCN(C)CC4=O)c(C=O)nc32)ncc1C#N [Compound 2]
- IC50 ([1]; 120 h incubation): 0.028 µM

SMILES: CSC(C)(C)CNc1cc(NC(=O)N2CCCc3cc(CN4CCN(C)CC4=O)c(C=O)nc32)ncc1C#N [Compound 6, N-(5-cyano-4-((2-methyl-2-(methylthio)propyl)amino)pyridin-2-yl)-7-formyl-6-((4-methyl-2-oxopiperazin-1-yl)methyl)-3,4-dihydro-1,8-naphthyridine-1 (2H)-carboxamide]
- IC50 ([1]; 120 h): 0.049 µM
- IC50 [3]: 0.0021 µM
- inhibitory effect on FGFR4 compared with the reference compound [4]: better inhibitory effect on FGFR4 than the reference compound

SMILES: CO[C@@H]1CCN(Cc2cc3c(nc2C=O)N(C(=O)Nc2cc(NCCSC)c(C#N)cn2)CCC3)C1=O [Compound 8, (R)-N-(5-cyano-4-((2-(methylthio)ethyl)amino)pyridin-2-yl)-7-formyl-6-((3-methoxy-2-oxopyrrolidin-1-yl)methyl)-3,4-dihydro-1,8-naphthyridine-1(2H)-carboxamide]
- inhibitory effect on Hepatoma cell Hep3B compared with the reference compound [1]: better inhibitory effect
- IC50 ([1]; 120 h incubation): 0.008 µM

SMILES: CO[C@@H]1CCN(Cc2cc3c(nc2C=O)N(C(=O)Nc2cc(N[C@H](C)CSC)c(C#N)cn2)CCC3)C1=O [Compound 9, N-(5-cyano-4-(((R)-1-(methylthio)propan-2-yl)amino)pyridin-2-yl)-7-formyl-6-(((R)-3-methoxy-2-oxopyrrolidin-1-yl)methyl)-3,4-dihydro-1,8-naphthyridine-1(2H)-carboxamide]
- inhibitory effect on Hepatoma cell Hep3B compared with the reference compound [1]: better inhibitory effect
- IC50 ([1]; 120 h incubation): 0.009 µM

SMILES: CSC[C@H](C)Nc1cc(NC(=O)N2CCCc3cc(CN4CCN(C)CC4=O)c(C=O)nc32)ncc1C#N [Compound 11, (S)-N-(5-cyano-4-((1-(methylthio)propan-2-yl)amino)pyridin-2-yl)-7-formyl-6-((4-methyl-2-oxopiperazin-1-yl)methyl)-3,4-dihydro-1,8-naphthyridine-1(2H)-carboxamide]
- IC50 ([1]; 120 h incubation): 0.035 µM

SMILES: CSCCNc1cc(NC(=O)N2CCCc3cc(CN4CCCCOC4=O)c(C=O)nc32)ncc1C#N [Compound 16, N-(5-cyano-4-((2-(methylthio)ethyl)amino)pyridin-2-yl)-7-formyl-6-((2-oxo-1,3-oxazepan-3-yl)methyl)-3,4-dihydro-1,8-naphthyridine-1(2H)-carboxamide]
- IC50 ([1]; 120 h incubation): 0.029 µM
- exposure amount AUC0-24 h and maximum drug concentration in blood Cmax compared with the reference compound ([2]; SD rats): significantly higher than the reference compound
- AUC(0-t) ([2]; SD rats): 3.67 µg·h/mL
- Cmax ([2]; SD rats): 0.936 µg/mL

SMILES: CN1CCN(Cc2cc3c(nc2C=O)N(C(=O)Nc2cc(NC4CCSCC4)c(C#N)cn2)CCC3)C(=O)C1 [Compound 20, N-(5-cyano-4-((tetrahydro-2H-thiopyran-4-yl)amino)pyridin-2-yl)-7-formyl-6-((4-methyl-2-oxopiperazin-1-yl)methyl)-3,4-dihydro-1,8-naphthyridine-1(2H)-carboxamide]
- inhibitory effect on Hepatoma cell Hep3B compared with the reference compound [1]: better inhibitory effect
- IC50 ([1]; 120 h incubation): 0.021 µM
- exposure amount AUC0-24 h and maximum drug concentration in blood Cmax compared with the reference compound ([2]; SD rats): significantly higher than the reference compound
- AUC(0-t) ([2]; SD rats): 2 µg·h/mL
- Cmax ([2]; SD rats): 0.514 µg/mL
- IC50 [3]: 0.0044 µM

SMILES: CN1CCN(Cc2cc3c(nc2C=O)N(C(=O)Nc2cc(NCC[S+](C)[O-])c(C#N)cn2)CCC3)C(=O)C1 (stereo not drawn) [Compound 27, N-(5-cyano-4-((2-(methyl-sulfinyl)ethyl)amino)pyridin-2-yl)-7-formyl-6-((4-methyl-2-oxopiperazin-1-yl)methyl)-3,4-dihydro-1,8-naphthyridine-1(2H)-carboxamide]
- IC50 ([1]; 120 h incubation): 0.282 µM
- IC50 [3]: 0.0024 µM
- inhibitory effect on FGFR4 compared with the reference compound [4]: better inhibitory effect on FGFR4 than the reference compound

SMILES: CN1CCN(Cc2cc3c(nc2C=O)N(C(=O)Nc2cc(NCc4cncs4)c(C#N)cn2)CCC3)C(=O)C1 [Compound 55, N-(5-cyano-4-((thiazol-5-yl-methyl)amino)pyridin-2-yl)-7-formyl-6-((4-methyl-2-oxopiperazin-1-yl)methyl)-3,4-dihydro-1,8-naphthyridine-1(2H)-carboxamide]
- IC50 [3]: 0.003 µM

SMILES: Cc1ccc(CNc2cc(NC(=O)N3CCCc4cc(CN5CCN(C)CC5=O)c(C=O)nc43)ncc2C#N)s1 [Compound 58, N-(5-cyano-4-(((5-methyl-thiophen-2-yl)methyl)amino)pyridin-2-yl)-7-formyl-6-((4-methyl-2-oxopiperazin-1-yl)methyl)-3,4-dihydro-1,8-naphthyridine-1(2H)-carboxamide]
- IC50 [3]: 0.0021 µM
- inhibitory effect on FGFR4 compared with the reference compound [4]: better inhibitory effect on FGFR4 than the reference compound

SMILES: CN1CCN(Cc2cc3c(nc2C=O)N(C(=O)Nc2cc(NCc4cscn4)c(C#N)cn2)CCC3)C(=O)C1 [Compound 59, N-(5-Cyano-4-((thiazol-4-yl-methyl)amino)pyridin-2-yl)-7-formyl-6-((4-methyl-2-oxopiperazin-1-yl)methyl)-3,4-dihydro-1,8-naphthyridine-1(2H)-carboxamide]
- IC50 [3]: 0.0021 µM
- inhibitory effect on FGFR4 compared with the reference compound [4]: better inhibitory effect on FGFR4 than the reference compound

SMILES: CC(Nc1cc(NC(=O)N2CCCc3cc(CN4CCN(C)CC4=O)c(C=O)nc32)ncc1C#N)c1nccs1 (stereo not drawn) [Compound 60, N-(5-cyano-4-((1-(thiazol-2-yl)ethyl)amino)pyridin-2-yl)-7-formyl-6-((4-methyl-2-oxopiperazin-1-yl)methyl)-3,4-dihydro-1,8-naphthyridine-1(2H)-carboxamide]
- IC50 [3]: 0.003 µM

SMILES: CN1CCN(Cc2cc3c(nc2C=O)N(C(=O)Nc2cc(NCc4ccsn4)c(C#N)cn2)CCC3)C(=O)C1 [Compound 68, N-(5-Cyano-4-((isothiazol-3-yl-methyl)amino)pyridin-2-yl)-7-formyl-6-((4-methyl-2-oxopiperazin-1-yl)methyl)-3-1,4-dihydro-1,8-naphthyridine-1(2H)-carboxamide]
- IC50 ([1]; 120 h incubation): 0.026 µM

SMILES: CCSCCNc1cc(NC(=O)N2CCCc3cc(CN4CCN(C)CC4=O)c(C=O)nc32)ncc1C#N [Compound 71, N-(5-cyano-44 (2-(ethylthio)ethypamino)pyridin-2-yl)-7-formyl-64 (4-methyl-2-oxopiperazin-1-yl)methyl)-3,4-dihydro-1,8-naphthyridine-1 (2H)-carboxamide hydrochloride]
- IC50 ([1]; 120 h): 0.049 µM
- exposure amount AUC0-24 h and maximum drug concentration in blood Cmax compared with the reference compound ([2]; SD rats): significantly higher than the reference compound
- AUC(0-t) ([2]; Sprague-Dawley (SD)): 1.95 µg·h/mL
- Cmax ([2]; Sprague-Dawley (SD)): 0.657 µg/mL
- IC50 [3]: 0.0024 µM

SMILES: CSCCNc1cc(NC(=O)N2CCCc3cc(CN(C)C(=O)[C@H]4CCCO4)c(C=O)nc32)ncc1C#N [Compound 74, (R)-N-(5-cyano-4-((2-(methylthio)ethyl)amino)pyridin-2-yl)-7-formyl-6-((N-methyltetrahydrofuran-2-carboxamido)methyl)-3,4-dihydro-1,8-naphthyridine-1(2H)-carboxamide hydrochloride]
- IC50 ([1]; 120 h incubation): 0.06 µM

SMILES: CSCC(C)Nc1cc(NC(=O)N2CCCc3cc(CN4CCN(C)CC4=O)c(C=O)nc32)ncc1C#N (stereo not drawn) [Compound 82, N-(5-cyano-4-((1-(methyl-thio)propan-2-yl)amino)pyridin-2-yl)-7-formyl-6-((4-methyl-2-oxopiperazin-1-yl)methyl)-3,4-dihydro-1,8-naphthyridine-1(2H)-carboxamide]
- inhibitory effect on Hepatoma cell Hep3B compared with the reference compound [1]: better inhibitory effect
- IC50 ([1]; 120 h incubation): 0.02 µM

Reference: US11136320B2, “Fused ring derivative used as FGFR4 inhibitor” (JACOBIO PHARMACEUTICALS CO., LTD., priority 2019, dated 2021)
